Values joined by “and” are separate entries in the source; they are usually repeats but may differ in a detail not shown here. Identical values can stand only once. “Also recorded” adds a separate entry of the source. Marks after values point to notes of the source that are not given here.
What was measured:
[1] = system: laser-induced CNV in monkeys; experiment: Laser-induced choroidal neovascularization in monkeys, fluorescein angiography lesion grading; format: in vivo, cynomolgus monkeys (Macaca fascicularis); conditions: for Incidence of CNV lesions, Lesion Grade I (% Total) / Incidence of CNV lesions, Lesion Grade II (% Total) / Incidence of CNV lesions, Lesion Grade III (% Total) / Incidence of CNV lesions, Lesion Grade IV (% Total): intravitreal, both eyes, days 1 and 15, 1.5 mg/eye (Lucentis 0.5 mg/eye); for Overall grade IV lesions versus vehicle control group: all time points together, Chi square test; for Incidence of grade IV lesions compared to vehicle control: days 22, 29 and 37, 1.5 mg/eye in oil formulation; for Overall Grade IV lesions (%): days 22, 29 and 37 summed, 1.5 mg/eye intravitreal days 1 and 15
Experimental: Study was performed in three phases. In phases Ia and Ib, the behavior of the suspension in aqueous (Ia) and oil (Ib) formulations, and multiple dosing regimens as well as any adverse effect due to multiple dosing at 3 mg/eye (Ia) or 1.5 (Ib) were investigated. In phase II test articles were administered twice during the study period on days 1 and 15. Eyes were examined with an indirect ophthalmoscope and fundus camera.
Adult male cynomolgus monkeys (Macaca fascicularis) age 2-7 years old were used to test the efficacy of BOL-303050-X, BOL-303054-X and BOL-303055-X. Lucentis® (ranibizumab) was used as historic control.
Both eyes of 46 monkeys were examined at baseline and then 42 animals were randomized into 5 groups. On Phase II Day 8 of Dosing, the animals were anesthetized with ketamine and dexmedetomidine and the macula of each eye of the animals in Groups 1 through […] underwent laser treatment by a retinal surgeon with a 532 nm diode green laser (OcuLight GL, IRIDEX Corp. Inc., Mountain View, Calif.) using a slit lamp delivery system and a Kaufman-Wallow (Ocular Instruments Inc, Bellevue, Wash.) plano fundus contact lens with Gonak (2.5%) as the coupling agent. Nine laser spot areas were symmetrically placed in the macula of each eye. The laser parameters included a 75 micron spot size and 0.1 second duration. The power setting used was assessed by the ability to produce a blister and a small hemorrhage. […] For areas not adjacent to the fovea, the initial power setting was 500 mW; if a second spot was placed, the power was set to 650 mW. For the area adjacent to the fovea the power settings were 400 mW (initial treatment) and 550 mW (second treatment). At the discretion of the retinal surgeon, power settings were adjusted based on observations at the time of laser. Power setting used for each spot was documented as well as number of burns per spot and whether hemorrhage occurred.
(§1) Once the phase Ib study was completed, and it was established that the drug suspension in oil would not interfere with either laser administration, evaluation of CNV or cause adverse effects, phase II was initiated. On days 1, and 15 both eyes of monkeys received 50 μL of Lucentis (0.5 mg/eye), vehicle (0 mg/eye), BOL-303050-X (1.5 mg/eye), BOL-303054-X (1.5 mg/eye) or BOL-303055-X (1.5 mg/eye) (Table 2). Intravitreous injection was performed for each by eye aiming towards mid-vitreous body. Dosing in the right eye was alternated for successive doses (as applicable) at approximately the 11 o'clock and 10 o'clock positions. Dosing in the left eye was alternated for successive doses (as applicable) from approximately the 1 o'clock and 2 o'clock positions.
Animals were anesthetized with ketamine and dexmedetomidine. A topical anesthetic (0.5% proparacaine) was instilled in each eye before dose administration. A wire speculum was used to retract the eyelids. The eyes were cleaned with a 2.5% povidone iodine solution and then rinsed with sterile saline. Each animal was dosed using 1 cc tuberculin syringes and 30 gauge needles.
FA was performed at baseline, on days 22, 29 and 37 (approximately 14, 21 and 28 days post-laser). Digital ocular photographs were taken in conjunction with FA. The FA procedure is well known by people skilled in the art of ophthalmology.
Evaluation of FA was done according to the following grading system for evidence of excessive permeability (fluorescein leakage) or any other abnormalities.
Grade IV lesions are considered to be clinically significant as these most closely resemble the active forms of classical CNV seen in various human retinal disorders, including age-related macular degeneration. Comparison of the incidence of Grade IV lesions between treatment groups was evaluated.
Grade IV lesions were analyzed using either Fisher's exact probability test (2-Tail) or Chi square test (χ2). […]

[2] = Intraocular pressure (Tono-pen) in monkeys after intravitreal injection; format: in vivo, cynomolgus monkeys (Macaca fascicularis)
Experimental: as §1
IOP was done in conjunction with the OE using a Tono-pen on anesthetized monkeys on days 1, 3, 7, 15, and 31 of dosing Phase II and on the day of scheduled sacrifice (day 38).
Grade IV lesions were analyzed using either Fisher's exact probability test (2-Tail) or Chi square test (χ2). For the analysis of delta changes in TOP a two-way ANOVA with repeated measures followed by the contrast procedure was performed on Box-Cox transformed data if needed. Unless indicated otherwise, data are presented as means±SEM unless stated otherwise. P<0.05 was considered statistically significant.

[3] = system: laser-induced CNV in rats; experiment: Laser-induced choroidal neovascularization in rats (CNV area, fluorescein angiography grades); format: in vivo, Brown Norway rats; conditions: day 14, 200 μg/eye (echistatin 5 μg, Avastin 125 μg); for CNV area / development of CNV on isolectin IB4-labeled flat mounts compared to vehicle-treated controls / Mean score of fluorescein leakage (FA score) compared to vehicle-treated controls: one intravitreal injection after laser; for Number of lesions in FA grade 1 / Number of lesions in FA grade 2 / Number of lesions in FA grade 3 / Number of lesions in FA grade 4: unobstructed lesions
Experimental: Fifty six male Brown Norway rats, approximately 200-300 grams of body weight and two months of age, were used in this study. This study was performed in two cohorts and only one eye of each rat was used.
The pupils were dilated and then the rats were anesthetized as described in baseline examination. The rats were positioned in front of a slit lamp system (Haag-Streit USA, Mason, Ohio). […] A diode laser (OcuLight TX, IRIDEX, Mountain View, Calif.) was used for photocoagulation (532 nm wavelength, 120 mW power, 50 μm spot size and 0.05 seconds duration). For each right eye, a series of six photocoagulation sites were concentrically placed between the major retinal vessels at equal distance (about two optic discs) around the optic nerve head. […] If a significant retinal or subretinal hemorrhage occurred during the laser photocoagulation, then the left eye was be photocoagulated and used as the experimental eye.
Grade 1 lesions had no hyperfluorescence.
The eyes were collected on day 14 and immediately fixed in 4% paraformaldehyde in PBS (pH 7.4) for one and half hours, and then transferred into cold PBS and kept at 4° C. for further processing.
The incubation was performed in a humidified dark chamber with gentle rotation at 4° C. overnight. On the second day, the retinal pigment epithelium (RPE)-choroidsclera complexes were washed with cold IHC buffer, mounted with ProLong® Gold antifade reagent, covered with circular cover glass, and sealed with clear nail polish. Fluorescent images were collected with a confocal microscope (FluoView FV 1000 confocal microscope, Olympus, Center Valley, Pa.) and a 4×, 0.16 numerical aperture objective lens. […] The laser sites were identified by merging images of the green (phalloidin labeling RPE) and the red (isolectin IB4 labeling CNV) channels. CNV complexes were identified using the red channel (isolectin), and their areas were quantified using the FluoView software (Version 1.7a).
Average FA scores and areas of CNV complexes in each group were presented as mean±SEM, unless otherwise indicated. They were analyzed using a one-way ANOVA followed by a Tukey-Kramer test after Box-Cox transformations. All statistics were performed utilizing the statistical analysis software JMP (SAS Institute, Cary, N.C.). p values ≦0.05 were considered statistically significant.

Row | Compound | Incidence of CNV lesions, Lesion Grade I (% Total) ([1]; Day 22) | Incidence of CNV lesions, Lesion Grade II (% Total) ([1]; Day 22) | Incidence of CNV lesions, Lesion Grade III (% Total) ([1]; Day 22) | Incidence of CNV lesions, Lesion Grade IV (% Total) ([1]; Day 22) | Incidence of CNV lesions, Lesion Grade I (% Total) ([1]; Day 29) | Incidence of CNV lesions, Lesion Grade II (% Total) ([1]; Day 29) | Incidence of CNV lesions, Lesion Grade III (% Total) ([1]; Day 29) | Incidence of CNV lesions, Lesion Grade IV (% Total) ([1]; Day 29) | Incidence of CNV lesions, Lesion Grade I (% Total) ([1]; Day 37) | Incidence of CNV lesions, Lesion Grade II (% Total) ([1]; Day 37) | Incidence of CNV lesions, Lesion Grade III (% Total) ([1]; Day 37) | Incidence of CNV lesions, Lesion Grade IV (% Total) ([1]; Day 37) | Overall grade IV lesions versus vehicle control group [1] | Incidence of grade IV lesions compared to vehicle control [1] | Overall Grade IV lesions (%) [1] | CNV area / development of CNV on isolectin IB4-labeled flat mounts compared to vehicle-treated controls [3] | Mean score of fluorescein leakage (FA score) compared to vehicle-treated controls [3] | Number of lesions in FA grade 1 [3] | Number of lesions in FA grade 2 [3] | Number of lesions in FA grade 4 [3] | further results
1 | COc1ccc(S(=O)(=O)N[C@@H](CNc2nc(C)nc(N3CCC(c4ccc5c(n4)NCCC5)CC3)c2C)C(=O)O)cc1 [BOL-303050-X] | 126:148 (85.14) % | 12:148 (8.11) % | 4:148 (2.70) % | 4.05% and 6:148 (4.05) % | 132:150 (88.00) % | 11:150 (7.33) % | 3:150 (2.00) % | 2.67% and 4:150 (2.67) % | 136:162 (83.95) % | 15:162 (9.26) % | 8:162 (4.94) % | 1.85% and 3:162 (1.85) % | significantly reduced | reduced compared to vehicle-treated eyes | (2.83)* % | completely inhibited in a small portion of lesions; also recorded: smaller area of CNV | smaller means | 6 | 12 | 2 | Reduction of IOP versus baseline ([2]; day 38 only, 1.5 mg/eye intravitreal days 1 and 15): 4 mm Hg; Number of lesions in FA grade 3 [3]: 4
2 | COc1c(NC[C@H](NC(=O)OCc2ccccc2)C(=O)O)ncnc1N1CCC(c2ccc3c(n2)NCCC3)CC1 [BOL-303054-X] | 79:133 (59.40) % | 1:133 (0.75) % | 8:133 (6.01) % | 45:133 (33.83) % | 80:133 (60.15) % | 5:133 (3.76) % | 2:133 (1.50) % | 46:133 (34.59) % | 83:136 (61.03) % | 6:136 (4.41) % | 5:136 (3.68) % | 41:136 (30.15) % | not statistically significant | higher incidences of grade IV lesions compared to the vehicle control | (32.84) % |  |  | 0 | 0 | 1 | Number of lesions in FA grade 3 [3]: 5
3 | CCc1nc(NC[C@H](NC(=O)OCc2ccccc2)C(=O)O)c(C)c(N2CCC(c3ccc4c(n3)NCCC4)CC2)n1 [BOL-303055-X] | 73:162 (45.06) % | 6:162 (3.7) % | 6:162 (3.70) % | 47.53% and 77:162 (47.53) % | 75:162 (46.3) % | 5:162 (3.09) % | 12:162 (7.41) % | 43.21% and 70:162 (43.21) % | 80:162 (49.38) % | 7:162 (4.32) % | 5:162 (3.68) % | 44.44% and 72:162 (44.44) % | significantly increased | higher incidences of grade IV lesions compared to the vehicle control | (45.06)* % | smaller area of CNV | smaller means | 0 | 3 | 1 | IOP change compared with baseline ([2]; right eyes day 15, left eyes days 3 and 15): reduced IOP; Increase in IOP compared to baseline ([2]; right eyes, day 31, 1.5 mg/eye intravitreal days 1 and 15): 4 mm Hg; Number of lesions in FA grade 3 [3]: 2
4 | bevacizumab [Avastin, reference compound] |  |  |  |  |  |  |  |  |  |  |  |  |  |  |  | did not inhibit the development of CNV | smaller means |  | 7 | 15 | 
